Laboratory results from paper PMC9314723, “The aqueous stability and interactions of organoruthenium compounds with serum proteins, cell culture medium, and human serum” (Metallomics: Integrated Biometal Science, 2022).

How the values were obtained:
HSA binding site II = biological target: T1, HSA binding site II (Homo sapiens, UniProt P02768); assay: Competitive displacement study, HSA binding site II (Ds marker), CZE; settings: for % Ds bound: Ds:HSA (100 μM) 2:1, n = 3
T1 construct: purchased Sigma-Aldrich A1653
Description: The affinity of complex 1 for binding sites I and II on HSA was investigated with Wf as the site marker for binding site I and Ds for site II by tracking the peak area for unbound Wf and Ds, respectively. Stock solutions of Wf, Ds, and HSA were prepared in H2O at concentrations of 800, 800, and 200 μM, respectively. Wf or Ds were incubated with HSA (100 μM) at a ratio of 2:1 for at least 1 h at room temperature before complex 1 was added at final concentrations of 200, 400, or 800 μM. The final concentration of methanol was 10% in all samples. Calibration curves for Wf or Ds in the range of 50–300 μM were determined before the start of each displacement study, to allow for accurate quantification of the amounts of Ds or Wf displaced by complex 1.
(§1) All measurements were performed in at least triplicate on a CE system G7100 (Agilent, Waldbronn, Germany) equipped with a long-life deuterium lamp (8 pin) with an radio-frequency identification (RFID) tag. A capillary (fused silica, 50 μm ID, Polymicro Technologies) with a total length of 50 cm and an effective length of 40 cm was installed for the separation with ultraviolet (UV) detection. The capillary zone electrophoresis (CZE)–UV data and peak areas presented were recorded at 200 nm, while the internal standard signal was recorded at 254 nm in the samples containing αMEM and human serum, as other neutral species were overlapping the signal at 200 nm. For HSA binding site studies, 210 nm was selected as the evaluation wavelength.
(§2) For the binding site studies with HSA, a modified version of a CE method was applied.[21] Before each run, the capillary was flushed with BGE (2 min), then +28 kV voltage was applied for 30 s followed by 1 min of flushing with BGE and the capillary was rinsed with HCl (0.1 M; 2 min), H2O (2 min), NaOH (1.0 M, 2 min), and H2O (2 min) after each separation. The sample tray and the capillary were kept at 25°C. Samples were injected hydrodynamically (30 mbar for 5 s) and the voltage applied was +28 kV for 5 min. The current reading was 34 μA.

Tf [1] = biological target: T2, Tf (Homo sapiens, UniProt P02787); assay: CZE interaction study with Tf; type: binding
T2 construct: purchased Sigma-Aldrich
Description: (§3) Stock solutions of HSA and Tf in BGE were prepared (400 μM). Studies were performed for 1 and 2 at complex (200 μM):protein ratios of 1:1, 10:1, and 20:1. The PCA complex 3 was investigated at complex (200 μM):protein ratios of 20:1 and 50:1 for HSA and at 10:1 and 20:1 for Tf. Samples were prepared just before the first measurement. BGE was used for dilution and [Co(acac)3] was added as the internal standard to all samples at a final concentration of 100 μM.
as §1
(§4) New capillaries were conditioned with HCl (0.1 M) and H2O followed by NaOH (1.0 M) and H2O for 10 min each followed by flushing with BGE [phosphate buffer (20 mM, pH 7.4)] for 20 min. The same procedure was carried out as daily conditioning. The capillary was flushed with BGE (3 min) before each run and was rinsed with HCl (0.1 M; 30 s), H2O (30 s), NaOH (1.0 M, 2 min), and H2O (2 min) after each separation. The sample tray and the capillary were kept at 25°C. Samples were injected hydrodynamically (50 mbar for 5 s) and the voltage applied was +20 kV for 5 min. The current reading was 23–24 μA.

[2] = CZE stability study in H2O and 20 mM phosphate buffer (pH 7.4); type: physicochemical; settings: 200 μM; for Stability in water (peak areas of cationic species constant): complex cations of 2 and 3, or initial aquation products of 1 and 3, CZE over 24 h
Description: Stability studies of complexes 1–3 were carried out in both H2O and 20 mM phosphate buffer (pH 7.4). Stock solutions for the complexes were prepared in methanol (2 mM). The samples were diluted just before the first measurement to a final complex concentration of 200 μM. Tris(acetylacetonato)cobalt(III) [Co(acac)3] was added as an internal standard to all samples at a final concentration of 100 μM. The stability was studied for 24 h by monitoring changes in the peak areas over time.
as §1, §4

Aqueous solubility = type: physicochemical
Tf [3] = biological target: T2, Tf; assay: FT-ICR-MS adduct formation with Tf; type: binding; settings: complex:Tf 5:1 in water
Description: The adduct formation between complex 1 and Tf was further studied using a Bruker Solarix XR 7 T FT–ICR–MS. A mixture of 1 and Tf in ratio 5:1 in H2O (18 MΩ, Millipore) was incubated for 24 h. A sample was collected after 0 and 24 h, and the samples were frozen until analysis. The samples were diluted 1:100 with 0.1% formic acid in H2O (18 MΩ, Millipore) prior to analysis, producing a final concentration of 2 μM for complex 1 and 0.4 μM for Tf. A separate standard of Tf at 0.4 μM was also prepared and analyzed.

HSA = biological target: T3, HSA (Homo sapiens, UniProt P02768); assay: CZE interaction study with HSA; type: binding
T3 construct: purchased Sigma-Aldrich A3782
Description: as §3, §1, §4

HSA binding site I = biological target: T4, HSA binding site I (Homo sapiens, UniProt P02768); assay: Competitive displacement study, HSA binding site I (Wf marker), CZE; settings: for % Wf bound: Wf:HSA (100 μM) 2:1, n = 3
T4 construct: purchased Sigma-Aldrich A1653
Description: The final concentration of methanol was 10% in all samples.
as §1, §2

human cancer cells = settings: cited from earlier work
[4] = parameters: method as in PMID 31357065; settings: cited from earlier work
[5] = CZE interaction study with cell culture medium; type: in vitro ADME; settings: complex 200 μM, medium diluted 1:10, complex:albumin 133:1
Description: The interactions of complexes 1–3 with cell culture medium (αMEM with 5% FBS) were investigated. The αMEM was diluted 1:10 with BGE and the complex concentrations were kept at 200 μM and [Co(acac)3] at 100 μM. The dilution corresponded to a complex:albumin ratio of 133:1.
as §1
(§5) New capillaries were conditioned with HCl (0.1 M) and H2O followed by NaOH (1.0 M) and H2O for 10 min each followed by flushing with BGE [phosphate buffer (20 mM, pH 7.4)] for 20 min. The same procedure was carried out as daily conditioning. […] The current reading was 23–24 μA.

[6] = CZE interaction study with human serum; type: in vitro ADME; settings: complex 200 μM, serum diluted 1:100, complex:albumin about 50:1
Description: The interactions of complexes 1–3 with human serum were investigated after diluting the serum 1:100 with BGE and the complex concentrations were kept at 200 μM and for [Co(acac)3] at 100 μM. The dilution corresponded to a complex:protein ratio of about 50:1 with regard to albumin content.
as §1, §5

plectin = test system: plectin; parameters: method as in earlier work; settings: cited from earlier work
HSA and Tf = test system: HSA and Tf; parameters: method as in PMID 15907879; settings: cited from earlier work

T2 sequence (P02787 20-698): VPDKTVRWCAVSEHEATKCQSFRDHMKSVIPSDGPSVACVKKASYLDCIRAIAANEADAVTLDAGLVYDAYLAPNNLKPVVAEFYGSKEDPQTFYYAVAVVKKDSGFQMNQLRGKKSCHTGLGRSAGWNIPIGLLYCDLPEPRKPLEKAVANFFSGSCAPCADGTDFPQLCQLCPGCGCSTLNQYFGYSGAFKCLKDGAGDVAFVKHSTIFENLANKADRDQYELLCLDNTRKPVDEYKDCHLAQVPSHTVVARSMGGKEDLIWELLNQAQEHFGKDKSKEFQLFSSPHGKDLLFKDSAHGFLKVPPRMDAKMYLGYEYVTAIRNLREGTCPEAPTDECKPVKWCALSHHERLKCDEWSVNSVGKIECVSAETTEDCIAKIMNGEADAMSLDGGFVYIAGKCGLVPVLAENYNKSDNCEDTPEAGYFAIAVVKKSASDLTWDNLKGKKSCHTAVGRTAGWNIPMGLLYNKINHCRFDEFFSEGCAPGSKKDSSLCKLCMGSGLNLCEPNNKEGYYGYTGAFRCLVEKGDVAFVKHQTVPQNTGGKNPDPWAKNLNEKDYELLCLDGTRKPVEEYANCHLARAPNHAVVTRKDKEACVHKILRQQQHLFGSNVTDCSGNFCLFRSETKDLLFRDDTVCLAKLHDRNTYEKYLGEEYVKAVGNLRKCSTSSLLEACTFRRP
T3 sequence (P02768 25-609): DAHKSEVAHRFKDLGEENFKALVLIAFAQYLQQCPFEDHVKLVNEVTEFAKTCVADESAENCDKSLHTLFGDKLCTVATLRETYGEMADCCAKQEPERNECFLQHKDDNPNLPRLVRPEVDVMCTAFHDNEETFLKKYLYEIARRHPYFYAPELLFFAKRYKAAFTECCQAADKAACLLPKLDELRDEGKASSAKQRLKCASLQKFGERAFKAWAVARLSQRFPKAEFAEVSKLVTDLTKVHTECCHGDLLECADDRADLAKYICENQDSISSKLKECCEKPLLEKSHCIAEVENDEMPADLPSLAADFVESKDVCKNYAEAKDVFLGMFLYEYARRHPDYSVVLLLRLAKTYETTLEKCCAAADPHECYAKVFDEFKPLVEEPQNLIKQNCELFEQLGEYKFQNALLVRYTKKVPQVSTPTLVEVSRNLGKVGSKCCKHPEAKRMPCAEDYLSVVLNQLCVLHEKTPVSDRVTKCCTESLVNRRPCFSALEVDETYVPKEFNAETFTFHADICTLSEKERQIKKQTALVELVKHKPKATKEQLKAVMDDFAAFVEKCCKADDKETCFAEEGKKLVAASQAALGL
T4 sequence (P02768 25-609): as above
T1 sequence (P02768 25-609): as above

## Cc1ccc(C(C)C)cc1.[Cl-].[O-]c1cccc2cccnc12.[Ru+2] [Complex 1, [Ru^II(cym)(8-HQ)Cl]]
HSA binding site II; 200 μM complex 1, 0 h
  % Ds bound: 44 ± 6%
HSA binding site II; 200 μM complex 1, 24 h
  % Ds bound: 50 ± 7%
HSA binding site II; 200 μM complex 1, 48 h
  % Ds bound: 45 ± 7%
HSA binding site II; 400 μM complex 1, 0 h
  % Ds bound: 35 ± 7%
HSA binding site II; 400 μM complex 1, 24 h
  % Ds bound: 19 ± 11%
HSA binding site II; 400 μM complex 1, 48 h
  % Ds bound: 33 ± 7%
HSA binding site II; 800 μM complex 1, 0 h
  % Ds bound: Fully displaced
HSA binding site II; 800 μM complex 1, 24 h
  % Ds bound: Fully displaced
HSA binding site II; 800 μM complex 1, 48 h
  % Ds bound: Fully displaced
HSA binding site II; at higher molar ratios
  Binding to site II on HSA (displacement of Ds): binds to both sites I and II on HSA
Tf [1]; complex (200 μM):Tf 1:1
  Binding to Tf, complex peak: complex peak was not detectable in the first run
Tf [1]; complex (200 μM):Tf 10:1, over 2 h
  Binding to Tf: majority of complex 1 was found attached to either protein
Tf [1]; complex (200 μM):Tf 20:1, after 2 h
  Fraction of complex remaining unbound: about a quarter to a third
[2]; migration relative to EOF marker [Co(acac)3]
  Speciation on dilution with water or BGE: underwent ligand exchange to form a cationic species
[2]
  Stability in water (peak areas of cationic species constant): at least 24 h
Aqueous solubility
  Aqueous solubility: limited aqueous solubility
Tf [3]; after 24 h
  Adducts formed with Tf: [Tf + 3 Ru(cym)(8-HQ)] was dominant
Tf [3]; immediately after mixing (0 h)
  Adducts formed with Tf: adducts with one, two, and three Ru(cym)(8-HQ) moieties attached to the protein
HSA; complex (200 μM):HSA 1:1
  Binding to HSA, complex peak: complex peak was not detectable in the first run
HSA; complex (200 μM):HSA 10:1, over 2 h
  Binding to HSA: majority of complex 1 was found attached to either protein
HSA; complex (200 μM):HSA 20:1, after 2 h
  Fraction of complex remaining unbound: about a quarter to a third
HSA binding site I; 200 μM complex 1, 0 h
  % Wf bound: 58 ± 4%
HSA binding site I; 200 μM complex 1, 24 h
  % Wf bound: 59 ± 4%
HSA binding site I; 200 μM complex 1, 48 h
  % Wf bound: 51 ± 4%
HSA binding site I; 400 μM complex 1, 0 h
  % Wf bound: 26 ± 9%
HSA binding site I; 400 μM complex 1, 24 h
  % Wf bound: 23 ± 5%
HSA binding site I; 400 μM complex 1, 48 h
  % Wf bound: 33 ± 8%
HSA binding site I; 800 μM complex 1, 0 h
  % Wf bound: Fully displaced
HSA binding site I; 800 μM complex 1, 24 h
  % Wf bound: Fully displaced
HSA binding site I; 800 μM complex 1, 48 h
  % Wf bound: Fully displaced
HSA binding site I; at higher molar ratios
  Binding to site I on HSA (displacement of Wf): binds to both sites I and II on HSA
Human cancer cells
  IC50 values (antiproliferative properties): low micromolar range
[4]
  Halido/aqua ligand exchange in aqueous environment (1H NMR): undergo halido/aqua ligand exchange quickly

## C1N2CN3CN1CP(C2)C3.Cc1ccc(C(C)C)cc1.O=S(=O)([O-])C(F)(F)F.[O-]c1cccc2cccnc12.[Ru+2] [Complex 2, [Ru^II(cym)(8-HQ)(PTA)](SO3CF3)]
[5]
  Interaction with αMEM spiked with 5% FBS: no interactions were observed
Tf [1]; complex (200 μM):Tf 1:1, 10:1, 20:1, over 1 d
  Interaction with Tf: does not interact with either protein
[2]
  Stability in water (peak areas of cationic species constant): at least 24 h
HSA; complex (200 μM):HSA 1:1, 10:1, 20:1, over 1 d
  Interaction with HSA: does not interact with either protein
[6]
  Interaction with human serum: no interactions were observed
[4]
  Halido/aqua ligand exchange in aqueous environment (1H NMR): inert

## Cc1ccc(C(C)C)cc1.Fc1ccc(NC(=S)c2ccccn2)cc1.[Cl-].[Cl-].[Ru+2] [Complex 3, [Ru^II(cym)(PCA)Cl]Cl]
[5]
  Interaction with αMEM spiked with 5% FBS: precipitation was observed
Tf [1]; complex:Tf 10:1
  Decrease in Tf peak area: 62%
Tf [1]; complex:Tf 20:1
  Decrease in Tf peak area: 82%
  Decrease in peak area of complex 3: 37%
[2]
  Stability in water (peak areas of cationic species constant): at least 24 h
HSA; complex (200 μM):HSA 20:1 and 50:1, data not analysable
  Observation on incubation with HSA: precipitation
Human cancer cells
  IC50 values (antiproliferative properties): low micromolar range
plectin
  Protein target: specifically target the scaffold protein and cytolinker plectin
[6]
  Interaction with human serum: precipitation was observed

## [Cl-].[Cl-].[Cl-].[Cl-].[Ru+3].c1ccc2[nH][nH+]cc2c1.c1ccc2[nH]ncc2c1.c1ccc2[nH]ncc2c1 [KP1019, Indazolium Trans-[Tetrachlorobis(1H-Indazole)Ruthenate(III)]]
HSA and Tf
  Relative rate of binding to serum proteins: bind quicker to Tf than HSA
